From patent US20250320209A1, “Salts and Solid Forms of Sonrotoclax Intermediate” (BeOne Medicines I GmbH, priority 2022, published 2025)

Assays:
[1] = Salt formation of Compound 2 with seven acids in seven organic solvents: physical form obtained; assay type: physicochemical; conditions: for physical form of the obtained salt: in certain organic solvents (summary of Table 1); for physical form of Compound 2 salt: 10 mL, acid 1.73 mmol
Experimental: In one example, Compound 2 (1.0 g, 1.73 mmol) in MTBE (10 mL) solution and oxalic acid (0.16 g, 1.73 mmol) was added dropwise. The reaction mixture was stirred for about 6 hours and filtered to obtain a wet cake of methyl 4-(2-{(2S)-2-[2-(propan-2-yl)phenyl]pyrrolidin-1-yl}-7-azaspiro[3.5]nonan-7-yl)-2-[(1H-pyrrolo[2,3-b]pyridin-5-yl)oxy]benzoate oxalate salt (Compound 3).
The other acids were used as the following amounts, D-(−)-tartaric (0.26 g, 1.73 mmol), p-toluenesulfonic acid (0.3 g, 1.73 mmol), D-DTTA (0.67 g, 1.73 mmol), Citric acid (0.33 g, 1.73 mmol), Malic acid (0.23 g, 1.73 mmol), Maleic acid (0.20 g, 1.73 mmol); and the other organic solvents were used with 10 mL volume.

[2] = Properties of the solid oxalate salt of Compound 2 as stated in text

Compound: COC(=O)c1ccc(N2CCC3(CC2)CC(N2CCC[C@H]2c2ccccc2C(C)C)C3)cc1Oc1cnc2[nH]ccc2c1.O=C(O)C(=O)O [Compound 3, methyl 4-(2-{(2S)-2-[2-(propan-2-yl)phenyl]pyrrolidin-1-yl}-7-azaspiro[3.5]nonan-7-yl)-2-[(1H-pyrrolo[2,3-b]pyridin-5-yl)oxy]benzoate oxalate salt]
- physical form of the obtained salt [1]: solid form
- physical form of Compound 2 salt ([1]; solvent 2-MeTHF): oil
- physical form of Compound 2 salt ([1]; solvent Acetone): Clean solution
- physical form of Compound 2 salt ([1]; solvent DCM): Clean solution
- physical form of Compound 2 salt ([1]; solvent EA): oil
- physical form of Compound 2 salt ([1]; solvent IPAc): moisture
- physical form of Compound 2 salt ([1]; solvent MTBE): Fine solid
- physical form of Compound 2 salt ([1]; solvent MeOH): Clean solution
- hydroscopic property ([2]; solid (wet cake) obtained from MTBE): low
- stability ([2]; solid salt, no test described): very good

Compound: Cc1ccc(C(=O)O[C@H](C(=O)O)[C@H](OC(=O)c2ccc(C)cc2)C(=O)O)cc1 [D-DTTA]
- physical form of the obtained salt [1]: solid form
- physical form of Compound 2 salt ([1]; solvent 2-MeTHF): Clean solution
- physical form of Compound 2 salt ([1]; solvent Acetone): Clean solution
- physical form of Compound 2 salt ([1]; solvent DCM): Clean solution
- physical form of Compound 2 salt ([1]; solvent EA): Clean solution
- physical form of Compound 2 salt ([1]; solvent IPAc): oil
- physical form of Compound 2 salt ([1]; solvent MTBE): Fine solid
- physical form of Compound 2 salt ([1]; solvent MeOH): Clean solution

Compound: Cc1ccc(S(=O)(=O)O)cc1 [p-toluenesulfonic acid]
- physical form of Compound 2 salt ([1]; solvent 2-MeTHF): Clean solution
- physical form of Compound 2 salt ([1]; solvent Acetone): Clean solution
- physical form of Compound 2 salt ([1]; solvent DCM): Clean solution
- physical form of Compound 2 salt ([1]; solvent EA): Clean solution
- physical form of Compound 2 salt ([1]; solvent IPAc): Clean solution
- physical form of Compound 2 salt ([1]; solvent MTBE): moisture absorption
- physical form of Compound 2 salt ([1]; solvent MeOH): Clean solution

Compound: Citric acid
- physical form of Compound 2 salt ([1]; solvent 2-MeTHF): oil
- physical form of Compound 2 salt ([1]; solvent Acetone): Clean
- physical form of Compound 2 salt ([1]; solvent DCM): Clean
- physical form of Compound 2 salt ([1]; solvent EA): oil
- physical form of Compound 2 salt ([1]; solvent IPAc): moisture
- physical form of Compound 2 salt ([1]; solvent MTBE): moisture
- physical form of Compound 2 salt ([1]; solvent MeOH): Clean

Compound: Maleic acid
- physical form of Compound 2 salt ([1]; solvent 2-MeTHF): Clean solution
- physical form of Compound 2 salt ([1]; solvent Acetone): Clean solution
- physical form of Compound 2 salt ([1]; solvent DCM): Clean solution
- physical form of Compound 2 salt ([1]; solvent EA): Clean solution
- physical form of Compound 2 salt ([1]; solvent IPAc): oil
- physical form of Compound 2 salt ([1]; solvent MTBE): moisture
- physical form of Compound 2 salt ([1]; solvent MeOH): Clean solution

Compound: Malic acid
- physical form of Compound 2 salt ([1]; solvent 2-MeTHF): Clean solution
- physical form of Compound 2 salt ([1]; solvent Acetone): Clean solution
- physical form of Compound 2 salt ([1]; solvent DCM): Clean solution
- physical form of Compound 2 salt ([1]; solvent EA): oil
- physical form of Compound 2 salt ([1]; solvent IPAc): oil
- physical form of Compound 2 salt ([1]; solvent MTBE): moisture
- physical form of Compound 2 salt ([1]; solvent MeOH): Clean solution
